Measurements from patent US9394268B2, “(E)-1-(5-methoxy-2,2-dimethyl-2H-chromen-8-yl)-3-(4-methoxyphenyl)prop-2-en-1-one and analogs thereof, as well as preparation method and use thereof” (Sichuan University, priority 2012, dated 2016).
“Also recorded” adds a separate entry of the source.

Tests used:
HepG2 = test: Cell proliferative assay (MTT), HepG2; assay type: cell-based; conditions: Homo sapiens, 72 h incubation, read-out: IC50s HepG2
How it was run: (§1)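 IC50 values (mean±SEM, at least three independent experiments) come from dose-response curves of MTT absorbance at 590 nm. Treatment lasted 72 h, starting 24 h after seeding.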

SW620 = test: Cell proliferative assay (MTT), SW620; assay type: cell-based; conditions: Homo sapiens, SW-620, 72 h incubation, read-out: IC50s SW620
How it was run: as §1

HT29 = test: Cell proliferative assay (MTT), HT29; assay type: cell-based; conditions: Homo sapiens, HT-29, 72 h incubation, read-out: IC50s HT29
How it was run: as §1

K562 = test: Cell proliferative assay (MTT), K562; assay type: cell-based; conditions: Homo sapiens, 72 h incubation, read-out: IC50s K562
How it was run: as §1

HCT116 = test: Cell proliferative assay (MTT), HCT116; assay type: cell-based; conditions: Homo sapiens, HCT-116, 72 h incubation, read-out: IC50s HCT116
How it was run: as §1

B16F10 cells [1] = test: Malignant melanoma B16 tumor xenograft study; assay type: in vivo, C57 mice; conditions: 5, 10 and 15 mg/kg intravenous once every other day for seven times; vs control P<0.01
Procedure: In Vivo Antitumor Activity (1) In Malignant Melanoma B16 Tumor Xenograft Study of Millepachine
Six-week-old female mice were obtained from Chinese Academy of Medical Science (Beijing, China). B16F10 cells (5×10^5 in 100 μl saline) were injected subcutaneously into the right flanks of C57 mice. When the tumor reached about 100 mm^3, mice were selected and randomly divided into four groups including control and three compounds-treated groups. The animals were intravenous injection with Millepachine (5, 10 and 15 mg/kg) or vehicle once every other day for seven times. Tumor burden was measured every 2 or 3 days with a caliper (calculated volume [mm^3]=π/6×length×width×width). After treatment, mice were killed tumors were collected and weighted.

B16F10 cells [2] = test: Malignant melanoma B16-induced lung metastasis; assay type: in vivo, C57 mice; conditions: 7.5 and 15 mg/kg intravenous once every other day for seven times
Procedure: (2) The Effect of Millepachine on the Malignant Melanoma B16-Induced Lung Metastasis
Six-week-old female mice were obtained from Chinese Academy of Medical Science (Beijing, China). B16F10 cells (5×10^5 in 100 μl saline) were injected intravenous into the caudal vein of C57 mice. The animals were intravenous injection with Millepachine (7.5 and 15 mg/kg) or vehicle once every other day for seven times after incubation of cell. After stop treatment for 20 days, mice were killed and lung metastasis was observed.

tumor cells = test: Cell proliferative assay (MTT), summary over tumor cells; assay type: cell-based; conditions: summary in words of Table 1, colon, liver, leukemia lines
Procedure: The synthesized compounds were evaluated for their cytotoxin activity against suspended tumor cells. These cells were seeded on 96-well plates and incubated for 24 h. Selected compounds were added at various doses and incubated for 72 h, MTT was then added, and the absorbance was measured at a wavelength of 590 nm. IC50 values are expressed as the mean±SEM from the dose-response curves of at least three independent experiments.

[3] = system: several cancer cell lines; conditions: background statement; cited from earlier work
HeLa-C3 cells = conditions: background statement; cited from earlier work
A549 cells = test: Human lung cancer A549 xenograft; assay type: in vivo, Balbc mice; conditions: 5, 10 and 20 mg/kg intravenous once three days for eight times; vs control P<0.01
Procedure: (3) In Vivo Anti-Tumor Activity of SKLBC-9 on Human Lung Cancer A549 Xenograft
Six-week-old female mice were obtained from Chinese Academy of Medical Science (Beijing, China). A549 cells (5×10^6 in 100 μl saline) were injected subcutaneously into the right flanks of Balbc mice. When the tumor reached about 100 mm^3, mice were selected and randomly divided into five groups including control, cisplatin (1.5 mg/kg) and SKLBC-9 (5,10,20 mg/kg). The animals were intravenous injection with SKLBC-9 (5, 10 and 20 mg/kg) or vehicle once three days for eight times. Tumor burden was measured every 2 or 3 days with a caliper (calculated volume [mm^3]=n/6× length×width×width). After treatment, mice were killed and tumors were collected and weighted.

SPC-A1 cells = test: Human lung cancer SPC-A1 xenograft; assay type: in vivo, Balb/c nude mice; conditions: 10, 20 mg/kg intravenous every three days for eight times; vs vehicle control
Procedure: (4) In Vivo Anti-Tumor Activity of SKLBC-9 on Human Lung Cancer SPC-A1 Xenograft
Six-week-old Balb/c nude mice were obtained from Chinese Academy of Medical Science (Beijing, China). SPC-A1 cells (5×10^6 in 100 μl saline) were injected subcutaneously into the right flanks of the mice. 14 days after cell injection, forty mice were selected and randomly divided into four groups including control, cisplatin (1.5 mg/kg) and SKLBC-9 (10, 20 mg/kg). The animals were intravenously injected with SKLBC-9 or vehicle every three days for eight times. Tumor burden and animal body weight was measured every 2 or 3 days. The survival rate was also recorded. After treatment, mice were killed and tumors were collected and weighted.

A549 = test: Cell proliferative assay (MTT), A549; assay type: cell-based; conditions: Homo sapiens, 72 h incubation, read-out: IC50s A549
How it was run: as §1

A375 = test: Cell proliferative assay (MTT), A375; assay type: cell-based; conditions: Homo sapiens, A-375, 72 h incubation, read-out: IC50s A375
How it was run: as §1

SMMC-7221 = test: Cell proliferative assay (MTT), SMMC-7221; assay type: cell-based; conditions: 72 h incubation, read-out: IC50s SMMC-7221
How it was run: as §1

LO2 = test: Cell proliferative assay (MTT), LO2; assay type: cell-based; conditions: Homo sapiens, L02, 72 h incubation, read-out: IC50s LO2
How it was run: as §1

HepG2 cells [4] = test: Human hepatocarcinoma HepG2 xenograft (SKLBC-45 study); assay type: in vivo, Balb/c nude mice; conditions: 2.5, 5, 10, 20 mg/kg intravenous every three days for eight times; vs vehicle control
Procedure: (5) In Vivo Anti-Tumor Activity of SKLBC-45 on Human Hepatocarcinoma HepG2 Xenograft
Six-week-old Balb/c nude mice were obtained from Chinese Academy of Medical Science (Beijing, China). HepG2 cells (10^7 in 100 μl saline) were injected subcutaneously into the right flanks of the mice. 14 days after cell injection, seventy mice were selected and randomly divided into seven groups including saline control, vehicle control, four doses of SKLBC-45 (2.5, 5, 10, 20 mg/kg) and positive control Adriamycin (5 mg/kg). The animals were intravenously injected with saline, SKLBC-45, adriamycin or vehicle every three days for eight times. Tumor burden and animal body weight was measured every 2 or 3 days. The survival rate was also recorded. After treatment, mice were killed and tumors were collected and weighted.

HepG2 cells [5] = test: Human hepatocarcinoma HepG2 xenograft (SKLBC-76 study); assay type: in vivo, Balb/c nude mice; conditions: 2.5, 5, 10 mg/kg intravenous every three days for eight times; vs control
Procedure: (6) In Vivo Anti-Tumor Activity of SKLBC-76 on Human Hepatocarcinoma HepG2 Xenograft
Six-week-old Balb/c nude mice were obtained from Chinese Academy of Medical Science (Beijing, China). HepG2 cells (10^7 in 100 μl saline) were injected subcutaneously into the right flanks of the mice. 14 days after cell injection, fifty mice were selected and randomly divided into five groups including control, three doses of SKLBC-76 (2.5, 5, 10 mg/kg) and positive control taxol (5 mg/kg). The animals were intravenously injected with SKLBC-76 or taxol every three days for eight times. Tumor burden and animal body weight was measured every 2 or 3 days. The survival rate was also recorded. After treatment, mice were killed and tumors were collected and weighted.

C26 cells [6] = test: C26-tumor bearing mice model (SKLBC-83 study); assay type: in vivo, Balb/c mice; conditions: 10 mg/kg intravenous every two days for eight times; vs control
Procedure: (7) In Vivo Anti-Tumor Activity of SKLBC-83 on C26-Tumor Bearing Mice Model.
Six-week-old Balb/c mice were obtained from Chinese Academy of Medical Science (Beijing, China). C26 cells (3×10^6 in 100 μl saline) were injected subcutaneously into the right flanks of the mice. 10 days after cell injection, thirty mice were selected and randomly divided into three groups including saline control, SKLBC-83 (10 mg/kg) and positive control taxol (5 mg/kg). The animals were intravenously injected with […] or taxol every two days for eight times. Tumor burden and animal body weight was measured every 2 or 3 days. The survival rate was also recorded. After treatment, mice were killed and tumors were collected and weighted.

C26 cells [7] = test: C26-tumor bearing mice model (seven-compound study); assay type: in vivo, Balb/c mice; conditions: 10 mg/kg intravenous every two days for eight times; vs control
Procedure: (8) In Vivo Anti-Tumor Activity of SKLBC-45, SKLBC-68, SKLBC-74, SKLBC-75, SKLBC-76, SKLBC-79, SKLBC-80 on C26-Tumor Bearing Mice Model.
Six-week-old Balb/c mice were obtained from Chinese Academy of Medical Science (Beijing, China). C26 cells (3×10^6 in 100 μl saline) were injected subcutaneously into the right flanks of the mice. 10 days after cell injection, when the average tumor volume reached ˜60 mm^3. Fifty-four mice were selected and randomly divided into nine groups including saline control, seven compounds and positive control taxol (5 mg/kg). The treatment started one day later. The animals were intravenously injected with SKLBC-45, SKLBC-68, SKLBC-74, SKLBC-75, SKLBC-76, SKLBC-79, SKLBC-80 (all 10 mg/kg) or taxol every two days for eight times. Tumor burden and animal body weight was measured every 2 or 3 days. The survival rate was also recorded. After treatment, mice were killed and tumors were collected and weighted. The results were shown in FIGS. 15, 16, 17, 18, 19, 20 and 21.

Row | IC50 (HepG2) [µM] | IC50 (SW620) [µM] | IC50 (HT29) [µM] | IC50 (K562) [µM] | IC50 (HCT116) [µM] | IC50 (A549) [µM] | IC50 (A375) [µM] | IC50 (SMMC-7221) [µM] | Compound | inhibitory activity against tumor cells (tumor cells) | IC50 (LO2) [µM] | other results
1 | 0.73 | 0.57 | 1.87 | 3.5 | 1.63 |  |  |  | COc1ccc(C(=O)/C=C/c2ccc(N(C)C)cc2)c2c1C=CC(C)(C)O2 [SKLBC-9, (E)-3-(4-(dimethylamino)phenyl)-1-(5-methoxy-2,2-dimethyl-2H-chromen-8-yl)prop-2-en-1-one] | better inhibitory activity |  | tumor growth (A549 cells): suppress tumor growth; average tumor weight (SPC-A1 cells): significantly lower; growth of tumor (SPC-A1 cells): significantly inhibited
2 | 5.76 | 5 | 2.12 | 5.4 | > 10 |  |  |  | COc1ccc(C(=O)/C=C/c2ccccn2)c2c1C=CC(C)(C)O2 [SKLBC-33, (E)-1-(5-methoxy-2,2-dimethyl-2H-chromen-8-yl)-3-(pyridin-2-yl)prop-2-en-1-one] | better inhibitory activity |  | 
3 | 0.148 |  |  | 0.522 |  | 0.36 | 0.62 | 0.61 | CCC(=O)Oc1ccc(C(=O)/C=C/c2ccc(N(CC)CC)cc2)c2c1C=CC(C)(C)O2 [SKLBC-45, (E)-8-(3-(4-(diethylamino)phenyl)acryloyl)-2,2-dimethyl-2H-chromen-5-yl propionate] | better inhibitory activity; also recorded: best inhibitory activity | 20 | average tumor weight (HepG2 cells [4]): significantly lower; growth of tumor (HepG2 cells [4]): significantly inhibited
4 | 0.103 |  |  | 0.164 |  | 0.475 | 0.443 | 2.15 | CCC(=O)Oc1cc(/C=C/C(=O)c2ccc(OC)c3c2OC(C)(C)C=C3)ccc1OC [SKLBC-76, (E)-2-methoxy-5-(3-(5-methoxy-2,2-dimethyl-2H-chromen-8-yl)-3-oxoprop-1-en-1-yl)phenyl propionate] |  | > 10 | average tumor weight (HepG2 cells [5]): significantly lower; growth of tumor (HepG2 cells [5]): significantly inhibited
5 | 0.042 |  |  | 0.246 |  | 0.285 | 0.111 | 0.278 | COc1ccc(/C=C/C(=O)c2ccc(OC)c3c2OC(C)(C)C=C3)cc1N [SKLBC-83, (E)-3-(3-amino-4-methoxyphenyl)-1-(5-methoxy-2,2-dimethyl-2H-chromen-8-yl)prop-2-en-1-one] |  | 8.5 | average tumor weight (C26 cells [6]): significantly lower; growth of tumor (C26 cells [6]): significantly inhibited; average tumor weight (C26 cells [7]): significantly lower; growth of tumor (C26 cells [7]): significantly inhibited

Row | Compound | IC50 (HepG2) [µM] | IC50 (SW620) [µM] | IC50 (HT29) [µM] | IC50 (K562) [µM] | IC50 (HCT116) [µM] | IC50 (A549) [µM] | IC50 (A375) [µM] | IC50 (SMMC-7221) [µM] | inhibitory activity against tumor cells (tumor cells) | IC50 (LO2) [µM] | other results
6 | COc1ccc(/C=C/C(=O)c2ccc(OC)c3c2OC(C)(C)C=C3)cc1 [Millepachine, (E)-1-(5-methoxy-2,2-dimethyl-2H-chromen-8-yl)-3-(4-methoxyphenyl)prop-2-en-1-one] | 2.61 | 0.76 | 3.29 | 4.56 | 4.66 |  |  |  | better inhibitory activity |  | survivor time of tumor-bearing mice (B16F10 cells [1]): prolong the survivor time; tumor growth (B16F10 cells [1]): suppress tumor growth; lung metastasis (B16F10 cells [2]): dose-dependently inhibited; also recorded: significantly inhibited; inhibitory activity against tumor cells (tumor cells; listed as SKLBC-1): best inhibitory activity; cytotoxic effects against cancer cells [3]: significant cytotoxic and apoptotic effects; apoptotic effects against cancer cells (HeLa-C3 cells): significant cytotoxic and apoptotic effects
